Measured values reported in patent US11613532B2, “Compounds active towards nuclear receptors” (NUEVOLUTION A/S, priority 2020, dated 2023).

Columns and labels:
RORγ = RORγ (Homo sapiens (Human), UniProt P51449); test: RORγ Reporter Assay (Gal4); type: cell-based; conditions: HEK293 cells co-transfected with RORγ LBD-Gal4 and luciferase reporter; 24 h incubation; absolute IC50
Protocol: The activity of the compounds was evaluated using a RORγ Reporter assay (also referred to as Gal4 assay). The Gal4 and the Th17 assays (another suitable assay) are both cell-based assays monitoring functional activity of the compound assayed. The HEK293 cell line is co-transfected transiently with two plasmids, one with the RORγ ligand-binding domain fused to galactose-responsive transcription factor (Gal4), and the other with the luciferase reporter gene and Gal binding sites (UAS). This construction allows to determine the RORγ activity in a cellular system through the measurement of luminescence. […] Media formulation consisted in DMEM/F-12 medium (Gibco) supplemented with 10% heat inactivated FBS (Sigma-Aldrich), non-essential aminoacids (Sigma-Aldrich), 2 mM Glutamax (Gibco) and 100 U/mL penicillin (Sigma-Aldrich). Dose-response curves with compounds were prepared in 100% DMSO and further diluted […] in culture medium. Compound solutions were added to the plate containing cells (final DMSO concentration of 0.1%) and incubated for 24 h at 37° C. and 5% CO2. Luciferase detection reagent was added to each well, and relative light units (RLUs) were quantified from each assay well using a plate reading luminometer. Values of average RLU±S.D. were computed for all treatment sets, followed by the calculations of percent-reduction of RORγ activity in response to respective test compound. The following formula was used: activity=100*[1−[x test compound/average vehicle where the theoretical minimum reduction (0% reduction).

plasma IL-17A = test: In vivo IL-17A induction in anti-CD3 model in mice; conditions: male C57BL/6JRj mice, anti-CD3e induced plasma IL-17A, oral gavage twice daily day 0 to day 3, 3 mg/kg
Protocol: Compounds disclosed herein have also been evaluated in a mouse in vivo pharmacodynamic model (anti-CD3-induced plasma IL-17A).
Male C57BL/6JRj mice (7 week old) were purchased from Janvier Labs and housed at the animal facilities of Almirall throughout the study. Animals were allowed to condition for 5 days in their new environment at 22° C.±2° C., 55%±10% relative humidity and 12 h:12 h light:dark cycles. Animals were housed in polycarbonate cages, with free access to water and non-purified stock diet (2014 Teklad Global 14% Protein Rodent Maintenance Diet, Envigo) during the full course of the studies. […]
Mice were injected intraperitoneally with 7.5 μg of anti-CD3e (Clone 145-2C11 from Pharmingen BD) at 0 h (day 0) and 48 h (day 3) time-points. […] Plasma levels of IL-17A were measured by ELISA (R&D Systems) according to the manufacturer's instruction. Results were calculated as the percentage of reduction of plasma IL-17A versus the difference between non-induced and anti-CD3e induced groups through the formula: inhibition=100*[1−[(x−mean non-induced)/(mean control vehicle−mean non-induced)]]. The IL-17A inhibition for each treatment can be expressed as the mean for each treatment group±S.E.M. Statistical analysis of data were conducted with one-way ANOVA followed by Dunnett's multiple comparisons test when appropriate. […]

RORγ, sequence (P51449 269-508): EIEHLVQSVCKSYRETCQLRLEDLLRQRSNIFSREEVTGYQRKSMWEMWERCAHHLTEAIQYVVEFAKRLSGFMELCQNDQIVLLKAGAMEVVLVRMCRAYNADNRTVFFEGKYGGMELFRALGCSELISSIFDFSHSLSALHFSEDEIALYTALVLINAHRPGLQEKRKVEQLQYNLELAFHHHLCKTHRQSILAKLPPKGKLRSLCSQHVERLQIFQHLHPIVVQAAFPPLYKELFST

SMILES	IC50 (RORγ)	Inhibition of IL-17A (%) at 3 mg/kg (plasma IL-17A)
NC(=O)CN1CC[C@@H](CNc2ncnc(N(C[C@H]3CC[C@H](C(F)(F)F)CC3)C3CCC3)c2F)[C@H](O)C1 (racemic) [Example A6-5, 2-((3RS,4RS)-4-(((6-(cyclobutyl(((1r,4R)-4-(trifluoromethyl)cyclohexyl)methyl)amino)-5-fluoropyrimidin-4-yl)amino)methyl)-3-hydroxypiperidin-1-yl)acetamide]	17 nM	–
CCN(C[C@H]1CC[C@]2(CC1)CC2(F)F)c1ncnc(NC[C@@H]2CCN(CC(N)=O)C[C@H]2O)c1F (relative stereo) [Example A6-1-1-1, rel-2-((3R,4R)-4-(((6-(((1,1-Difluorospiro[2.5]octan-6-yl)methyl)(ethyl)amino)-5-fluoropyrimidin-4-yl)amino)methyl)-3-hydroxypiperidin-1-yl)acetamide]	35 nM	–
CCN(CC1CCC2(CC1)CC2(F)F)c1ncnc(NC[C@H]2CCN(CC(N)=O)C[C@@H]2O)c1F (relative stereo) [Example A6-1-1-2, rel-2-((3R,4R)-4-(((6-(((1,1-Difluorospiro[2.5]octan-6-yl)methyl)(ethyl)amino)-5-fluoropyrimidin-4-yl)amino)methyl)-3-hydroxypiperidin-1-yl)acetamide]	44 nM	–
CCN(C[C@H]1CC[C@H](C(F)(F)F)CC1)c1ncnc(NC[C@@]2(O)CCN(CC(N)=O)C[C@@H]2O)c1F (single isomer, unassigned) [AD-6-1, 2-((3R*,4R*)-4-(((6-(ethyl(((1r,4R)-4-(trifluoromethyl)cyclohexyl)methyl)amino)-5-fluoropyrimidin-4-yl)amino)methyl)-3,4-dihydroxypiperidin-1-yl)acetamide]	1.2 nM	95%
CCN(C[C@H]1CC[C@H](C(F)(F)F)CC1)c1ncnc(NC[C@@]2(O)CCN(CC(N)=O)C[C@@H]2O)c1F (single isomer, unassigned) [AD-6-2, 2-((3R*,4R*)-4-(((6-(ethyl(((1r,4R)-4-(trifluoromethyl)cyclohexyl)methyl)amino)-5-fluoropyrimidin-4-yl)amino)methyl)-3,4-dihydroxypiperidin-1-yl)acetamide]	15 nM	–
CCN(C[C@H]1CC[C@H](C(F)(F)F)CC1)c1ncnc2c1ccn2C[C@]1(O)CCN(CC(N)=O)C[C@H]1O (single isomer, unassigned) [BD-5-1-1, 2-((3R*,4R*)-4-((4-(ethyl(((1r,4R)-4-(trifluoromethyl)cyclohexyl)methyl)amino)-7H-pyrrolo[2,3-d]pyrimidin-7-yl)methyl)-3,4-dihydroxypiperidin-1-yl)acetamide]	3.3 nM	–
CCN(C[C@H]1CC[C@H](C(F)(F)F)CC1)c1ncnc2c1ccn2C[C@]1(O)CCN(CC(N)=O)C[C@H]1O (single isomer, unassigned) [BD-5-1-2, 2-((3R*,4R*)-4-((4-(ethyl(((1r,4R)-4-(trifluoromethyl)cyclohexyl)methyl)amino)-7H-pyrrolo[2,3-d]pyrimidin-7-yl)methyl)-3,4-dihydroxypiperidin-1-yl)acetamide]	4.3 nM	–
CCN(C[C@H]1CC[C@@]2(CC1)CC2(F)F)c1ncnc(NC[C@@H]2CCN(CC(N)=O)C[C@H]2O)c1F (single isomer, unassigned) [Example A6-1-2-1]	49 nM	–
CCN(CC1CCC2(CC1)COC2)c1ncnc(NC[C@@H]2CCN(CC(N)=O)C[C@H]2O)c1F (single isomer, unassigned) [Example A6-6-1]	690 nM	–
CCN(CC1CCC2(CC1)COC2)c1ncnc(NC[C@@H]2CCN(CC(N)=O)C[C@H]2O)c1F (single isomer, unassigned) [Example A6-6-2]	980 nM	–
CCN(CC1(F)CCC(C(F)(F)F)CC1)c1ncnc(NC[C@@H]2CCN(CC(N)=O)C[C@H]2O)c1F (single isomer, unassigned) [Example A6-7-1]	43 nM	–
CCN(CC1(F)CCC(C(F)(F)F)CC1)c1ncnc(NC[C@@H]2CCN(CC(N)=O)C[C@H]2O)c1F (single isomer, unassigned) [Example A6-7-2]	69 nM	–
